System: Nakaseomyces glabratus
Test: Ratio of ERG11 gene expression in Candida glabrata isolated from patient 491 receiving antifungal drug to ERG11 gene expression in Candida glabrata isolated from patient 491 by RT-PCR analysis
Assay type: functional

SMILES: OC(Cn1cncn1)(Cn1cncn1)c1ccc(F)cc1F [FLUCONAZOLE]
- fold change (FC): 1.2

From ChEMBL document CHEMBL1687752, “Impact of antifungal prophylaxis on colonization and azole susceptibility of Candida species” (2009)
